In US20200230155A1, “TOPICAL CORTICOSTEROID COMPOSITIONS” (Encore Dermatology, Inc., priority 2014, published 2020):
Where two headings read alike, the source gives them in different places.

What was measured:
[1] = cited from earlier work
skin blanching = details: in vivo; cited from earlier work
[2] = tested on: intact skin of healthy volunteers; test: Irritation patch test study under semi-occlusive conditions; details: continuous exposure under semi occlusion, 21 patch applications over 21 days
Text: This was a randomized, double-blind, single-center, vehicle-controlled, within-subject comparison patch test study of followings for irritation potential when repeatedly applied to the skin under semi-occlusive conditions in healthy volunteers: • i. […] Vehicle spray (without active agent of Composition 6), • iii.
All subjects received applications of each study product to intact skin at randomly assigned, adjacent sites on the back. Evaluators and subjects were blinded and unaware of the identity of the study product at the patch test sites. The study products were applied under semi-occlusive patch conditions using a 2 cm×2 cm patch. The products were applied to either side of the infrascapular area of the back. Evaluation of dermal reactions at the application sites were assessed clinically using a visual scale that rates the degree of erythema, edema, and other signs of cutaneous irritation.
A total of 21 patch applications were made over a period of 21 days. Irritancy score of each composition was recorded.

Compound | Solubility ([1]; in acetone) | Solubility ([1]; in chloroform) | Solubility ([1]; in ethanol) | Solubility ([1]; in water) | VCA potency class (skin blanching) | Irritation [2]
CCC(=O)OCC(=O)[C@@]1(OC(=O)CC)[C@@H](C)C[C@H]2[C@@H]3CCC4=CC(=O)C=C[C@]4(C)[C@@]3(F)[C@@H](O)C[C@@]21C [Betamethasone dipropionate, 9-fluoro-11(β),17,21-trihydroxy-16(β)-methylpregna-1,4-diene-3,20-dione 17,21-dipropionate] | freely soluble | freely soluble | sparingly soluble | practically insoluble | super potent (Class 1) and/or high potent (Class 2) | –
CCCCCCCCCCCCOS(=O)(=O)[O-].[Na+] [0.2% SLS, Sodium lauryl sulfate] | – | – | – | – | – | Significantly more irritation
